Tested on: TATA box-containing oligonucleotide (DNA, duplex) GAAGGGGGGCTATAAAAGGGGGTG/CACCCCCTTTTATAGCCCCCCTTC
Experiment: EMSA, inhibition of TBP binding to TATA box probe
Conditions: LightShift chemiluminescent EMSA; probe preincubated with BBR; TBP from PC12 nuclear extract displaced; apparent

- IC50: 0.3985 µmol
Compound: COc1ccc2cc3[n+](cc2c1OC)CCc1cc2c(cc1-3)OCO2
